Experimental findings from ChEMBL document CHEMBL5226284, “Small Molecule Inhibitors Targeting Biosynthesis of Ceramide, the Central Hub of the Sphingolipid Network” (J Med Chem, 2021) are described below.

Experiment [1] concerns the target T1, Sphingolipid delta(4)-desaturase DES1 (Rattus norvegicus, UniProt Q5XIF5).
T1 sequence (Q5XIF5 whole entry): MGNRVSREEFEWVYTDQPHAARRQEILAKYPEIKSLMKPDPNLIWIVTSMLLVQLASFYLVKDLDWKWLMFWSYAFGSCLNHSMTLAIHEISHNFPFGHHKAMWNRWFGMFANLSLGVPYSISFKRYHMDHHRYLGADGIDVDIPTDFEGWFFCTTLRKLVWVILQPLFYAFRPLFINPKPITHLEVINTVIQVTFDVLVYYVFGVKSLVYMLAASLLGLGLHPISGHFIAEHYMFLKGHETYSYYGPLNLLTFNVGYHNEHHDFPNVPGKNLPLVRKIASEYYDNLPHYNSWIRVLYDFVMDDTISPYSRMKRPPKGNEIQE
The experiment is described as follows: Inhibition of rat liver microsome DES1 incubated for 1 hr fluorescence based analysis. Format: microsomes. (In general: Liver microsomes are a subcellular fraction often used to study metabolism.)

Experiment [2] has as its target Sphingomyelinase C (Bacillus cereus) (UniProt P11889). In words: Inhibition of Bacillus cereus SMaseC at 100 uM relative to control.
The target of experiment [3] is T2, Ceramide synthase 2 (Homo sapiens, UniProt Q96G23).
T2 sequence (Q96G23 whole entry): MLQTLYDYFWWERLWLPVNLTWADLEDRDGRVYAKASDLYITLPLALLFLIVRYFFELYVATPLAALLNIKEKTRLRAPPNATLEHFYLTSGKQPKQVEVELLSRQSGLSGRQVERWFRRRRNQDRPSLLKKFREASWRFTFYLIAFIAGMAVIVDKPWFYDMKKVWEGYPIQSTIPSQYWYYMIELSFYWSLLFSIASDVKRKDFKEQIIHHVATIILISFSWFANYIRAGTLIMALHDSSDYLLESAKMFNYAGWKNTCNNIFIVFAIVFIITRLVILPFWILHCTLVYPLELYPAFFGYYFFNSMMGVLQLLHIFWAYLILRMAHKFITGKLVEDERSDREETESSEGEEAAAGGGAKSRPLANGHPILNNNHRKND
The experiment is described as follows: Inhibition of human CerS2.

For experiment [4], the target named is Ceramide synthase 4 (Homo sapiens, UniProt Q9HA82). The experiment is described as follows: Inhibition of human CerS4.
The target in experiment [5] is Ceramide synthase 2 (Mus musculus, UniProt Q924Z4). In words: Inhibition of mouse CerS2.
Experiment [6] deals with Ceramide synthase 5 (Mus musculus, UniProt Q9D6K9). The experiment is described as follows: Inhibition of mouse CerS5.
Experiment [7] has as its target Ceramide synthase 6 (Homo sapiens, UniProt Q6ZMG9). The experiment is described as follows: Inhibition of human CerS6.
The target in experiment [8] is T3, Sphingolipid delta(4)-desaturase DES1 (Homo sapiens, UniProt O15121).
T3 sequence (O15121 whole entry): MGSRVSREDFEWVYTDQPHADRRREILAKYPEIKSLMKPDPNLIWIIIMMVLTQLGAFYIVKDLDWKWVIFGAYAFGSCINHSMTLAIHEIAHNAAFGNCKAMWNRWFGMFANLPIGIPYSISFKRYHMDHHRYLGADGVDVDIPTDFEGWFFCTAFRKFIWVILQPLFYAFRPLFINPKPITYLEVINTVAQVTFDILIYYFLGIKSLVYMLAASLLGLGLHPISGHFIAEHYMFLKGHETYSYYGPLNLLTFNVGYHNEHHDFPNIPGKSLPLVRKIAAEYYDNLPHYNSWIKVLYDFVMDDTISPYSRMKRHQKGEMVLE
In words: Noncompetitive inhibition of DES1 in human HGC-27 cell lysates assessed as inhibition constant. Format: subcellular.

Experiment [9] has as its target Sphingomyelin phosphodiesterase 3 (Homo sapiens) (UniProt Q9NY59). In words: Inhibition of nSMase2 (unknown origin) at 50 uM relative to control.
The target of experiment [10] is T4, Sphingomyelin phosphodiesterase 2 (Rattus norvegicus, UniProt Q9ET64).
T4 sequence (Q9ET64 whole entry): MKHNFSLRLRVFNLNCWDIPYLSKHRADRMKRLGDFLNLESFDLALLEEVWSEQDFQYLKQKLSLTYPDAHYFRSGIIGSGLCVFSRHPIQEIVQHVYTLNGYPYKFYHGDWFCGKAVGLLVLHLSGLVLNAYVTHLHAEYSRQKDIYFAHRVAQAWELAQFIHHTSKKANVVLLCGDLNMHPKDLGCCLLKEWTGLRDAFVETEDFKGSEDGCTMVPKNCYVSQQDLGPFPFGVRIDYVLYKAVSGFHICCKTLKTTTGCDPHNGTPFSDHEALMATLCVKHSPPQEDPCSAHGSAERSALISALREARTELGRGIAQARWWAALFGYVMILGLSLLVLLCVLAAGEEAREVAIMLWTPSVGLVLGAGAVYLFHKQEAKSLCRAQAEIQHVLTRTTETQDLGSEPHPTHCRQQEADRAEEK
In words: Inhibition of rat brain nSMase. Format: tissue-based.

The target of experiment [11] is Sphingomyelin phosphodiesterase 2 (Mus musculus) (UniProt O70572). In words: Inhibition of nSMase in mouse Splenocyte at 1 uM relative to control. Format: cell-based.
The nature of experiment [12]: Inhibition of rat plasma secretory SMase. Format: cell-free.
Experiment [13] in a line: Inhibition of Bacillus cereus nSMase.
A short description of experiment [14]: Mixed type inhibition of human recombinant glucocerebrosidase at pH 5.6.
Experiment [15] is described as follows: Mixed type inhibition of human recombinant glucocerebrosidase at pH 4.3.
The nature of experiment [16]: Mixed type inhibition of human recombinant glucocerebrosidase at pH 6.7.
For experiment [17], the target named is Acetylcholinesterase (Homo sapiens, UniProt P22303). In words: Inhibition of AChe (unknown origin).
The target in experiment [18] is T1, Sphingolipid delta(4)-desaturase DES1. In words: Inhibition of rat liver microsome DES1 using N-octanoylsphinganine as substrate incubated for 30 mins. Format: microsomes.
In experiment [19] the target is T3, Sphingolipid delta(4)-desaturase DES1. The experiment is described as follows: Binding affinity to DES1 in human HGC-27 cell lysates assessed as inhibition constant. Format: subcellular.
For experiment [20] the target is unchanged. The experiment is described as follows: Inhibition of DES1 in human HGC-27 cell lysates. Format: subcellular.
Experiment [21] concerns the target T1, Sphingolipid delta(4)-desaturase DES1. The experiment is described as follows: Inhibition of rat liver microsome DES1 assessed as inhibition constant incubated for 20 mins in presence of NADH by liquid scintillation counter method. Format: microsomes.
Experiment [22] has the same target. In words: Inhibition of rat liver microsome DES1 incubated for 20 min in presence of NADH by liquid scintillation counter method. Format: microsomes.
For experiment [23], the target named is T3, Sphingolipid delta(4)-desaturase DES1. The experiment is described as follows: Inhibition of DES1 (unknown origin).
A short description of experiment [24]: Non-competitive inhibition of bovine brain microsomes nSMase assessed as inhibition constant. Also on record: species or system Bos taurus, Microsome.
A short description of experiment [25]: Inhibition of bovine brain microsomes nSMase. Also on record: species or system Bos taurus, Microsome.
Experiment [26] is described as follows: Competitive inhibition of rat brain aSMase assessed as inhibition constant. Format: tissue-based.
Experiment [27] in a line: Inhibition of rat brain aSMase using HMU-PC as substrate incubated for 3 hrs by fluorescence based analysis. Format: tissue-based.
In experiment [28] the test system is Neutral sphingomyelinase (Sus scrofa). In words: Inhibition of pig liver plasma membranes nSMase at 100 uM measured after 15 mins at 100 uM relative to control. The note with it: Plasma membrane.
Experiment [29] deals with T4, Sphingomyelin phosphodiesterase 2. In words: Inhibition of rat brain microsomes nSMase assessed as inhibition constant. The arrangement: species or system Microsome.
The target in experiment [30] is Sphingomyelin phosphodiesterase (Homo sapiens, UniProt P17405). In words: Inhibition of recombinant human aSMase assessed as inhibition constant.
In experiment [31] the target is Sphingomyelin phosphodiesterase (Homo sapiens) (UniProt P17405). In words: Inhibition of recombinant human aSMase at 5 uM relative to control.
A short description of experiment [32]: Inhibition of rat liver microsome Sphingosine N-acyltransferase assessed as inhibition of [3H]sphingosine to [3H]ceramide conversion incubated for 2 hrs. Format: microsomes.
Experiment [33] addresses T2, Ceramide synthase 2. The experiment is described as follows: Inhibition of CerS2 in HPAC cells using DHSph as substrate. Format: cell-based.
Experiment [34] addresses T2, Ceramide synthase 2. The experiment is described as follows: Competitive inhibition of CerS2 in HPAC cells using DHSph as substrate by LC/MS/MS analysis. Format: cell-based.

SMILES strings stand for the structures.

Sequence of Sphingomyelin phosphodiesterase 2 (Mus musculus) (O70572 whole entry): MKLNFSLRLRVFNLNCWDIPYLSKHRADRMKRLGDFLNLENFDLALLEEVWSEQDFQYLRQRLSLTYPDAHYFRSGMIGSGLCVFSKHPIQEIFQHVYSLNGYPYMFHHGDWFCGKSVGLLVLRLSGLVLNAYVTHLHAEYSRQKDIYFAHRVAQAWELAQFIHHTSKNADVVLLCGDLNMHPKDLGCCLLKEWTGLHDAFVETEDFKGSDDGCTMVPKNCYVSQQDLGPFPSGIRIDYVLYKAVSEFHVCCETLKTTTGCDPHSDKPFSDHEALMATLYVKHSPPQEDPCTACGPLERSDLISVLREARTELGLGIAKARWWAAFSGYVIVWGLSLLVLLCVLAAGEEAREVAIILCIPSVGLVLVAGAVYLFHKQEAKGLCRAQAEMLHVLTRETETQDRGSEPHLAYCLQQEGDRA
Sequence of Sphingomyelinase C (Bacillus cereus) (P11889 whole entry): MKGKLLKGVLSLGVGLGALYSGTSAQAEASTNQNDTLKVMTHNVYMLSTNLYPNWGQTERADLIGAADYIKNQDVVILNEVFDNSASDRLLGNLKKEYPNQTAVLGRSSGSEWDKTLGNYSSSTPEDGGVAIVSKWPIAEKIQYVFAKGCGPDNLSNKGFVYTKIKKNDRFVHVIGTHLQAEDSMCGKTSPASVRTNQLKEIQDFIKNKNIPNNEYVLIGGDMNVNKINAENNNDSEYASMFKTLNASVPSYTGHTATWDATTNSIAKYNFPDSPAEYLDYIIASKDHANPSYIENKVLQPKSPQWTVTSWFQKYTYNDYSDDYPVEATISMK
Sequence of Acetylcholinesterase (P22303 whole entry): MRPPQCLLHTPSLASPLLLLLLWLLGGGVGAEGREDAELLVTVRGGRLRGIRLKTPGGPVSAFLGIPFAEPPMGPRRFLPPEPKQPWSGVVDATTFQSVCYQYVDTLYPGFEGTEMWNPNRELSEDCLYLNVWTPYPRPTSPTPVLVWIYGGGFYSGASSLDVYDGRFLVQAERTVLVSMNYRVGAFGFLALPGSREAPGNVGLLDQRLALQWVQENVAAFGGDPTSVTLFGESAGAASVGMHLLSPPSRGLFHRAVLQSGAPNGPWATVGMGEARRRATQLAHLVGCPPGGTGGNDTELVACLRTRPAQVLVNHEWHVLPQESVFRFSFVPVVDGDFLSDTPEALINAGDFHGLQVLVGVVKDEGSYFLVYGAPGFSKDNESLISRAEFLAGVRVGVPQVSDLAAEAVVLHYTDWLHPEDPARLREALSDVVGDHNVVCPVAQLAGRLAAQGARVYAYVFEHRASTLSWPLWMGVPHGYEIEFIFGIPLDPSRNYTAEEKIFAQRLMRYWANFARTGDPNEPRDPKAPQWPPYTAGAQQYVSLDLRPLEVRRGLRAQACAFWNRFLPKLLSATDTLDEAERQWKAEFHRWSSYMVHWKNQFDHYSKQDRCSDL
Sequence of Ceramide synthase 4 (Q9HA82 whole entry): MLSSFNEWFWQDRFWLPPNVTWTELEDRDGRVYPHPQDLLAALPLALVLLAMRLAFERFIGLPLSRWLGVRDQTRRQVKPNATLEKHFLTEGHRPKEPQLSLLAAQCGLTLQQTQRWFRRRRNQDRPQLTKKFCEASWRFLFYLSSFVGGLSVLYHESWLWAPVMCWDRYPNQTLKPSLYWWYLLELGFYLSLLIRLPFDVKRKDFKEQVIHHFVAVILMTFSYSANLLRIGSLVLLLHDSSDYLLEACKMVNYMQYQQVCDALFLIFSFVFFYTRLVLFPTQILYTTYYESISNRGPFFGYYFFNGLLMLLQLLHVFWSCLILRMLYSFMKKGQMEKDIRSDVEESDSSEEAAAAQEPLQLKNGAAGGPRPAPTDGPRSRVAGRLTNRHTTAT
Sequence of Sphingomyelin phosphodiesterase 3 (Homo sapiens) (Q9NY59 whole entry): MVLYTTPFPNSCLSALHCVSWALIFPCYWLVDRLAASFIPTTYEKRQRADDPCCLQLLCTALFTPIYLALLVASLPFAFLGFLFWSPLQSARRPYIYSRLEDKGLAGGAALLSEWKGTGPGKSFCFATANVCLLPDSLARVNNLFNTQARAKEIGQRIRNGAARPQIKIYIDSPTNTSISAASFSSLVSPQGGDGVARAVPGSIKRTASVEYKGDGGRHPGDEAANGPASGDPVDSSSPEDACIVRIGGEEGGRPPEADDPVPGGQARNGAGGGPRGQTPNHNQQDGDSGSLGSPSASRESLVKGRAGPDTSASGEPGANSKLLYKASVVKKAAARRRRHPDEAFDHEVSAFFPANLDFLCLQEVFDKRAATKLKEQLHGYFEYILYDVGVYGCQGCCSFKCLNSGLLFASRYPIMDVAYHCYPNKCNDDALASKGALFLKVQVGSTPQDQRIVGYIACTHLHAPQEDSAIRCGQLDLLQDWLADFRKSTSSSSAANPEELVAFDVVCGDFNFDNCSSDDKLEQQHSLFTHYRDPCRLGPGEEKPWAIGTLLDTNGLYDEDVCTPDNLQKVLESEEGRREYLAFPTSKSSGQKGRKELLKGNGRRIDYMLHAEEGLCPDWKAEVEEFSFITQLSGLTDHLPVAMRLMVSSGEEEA
Sequence of Sphingomyelin phosphodiesterase (Homo sapiens) (P17405 whole entry): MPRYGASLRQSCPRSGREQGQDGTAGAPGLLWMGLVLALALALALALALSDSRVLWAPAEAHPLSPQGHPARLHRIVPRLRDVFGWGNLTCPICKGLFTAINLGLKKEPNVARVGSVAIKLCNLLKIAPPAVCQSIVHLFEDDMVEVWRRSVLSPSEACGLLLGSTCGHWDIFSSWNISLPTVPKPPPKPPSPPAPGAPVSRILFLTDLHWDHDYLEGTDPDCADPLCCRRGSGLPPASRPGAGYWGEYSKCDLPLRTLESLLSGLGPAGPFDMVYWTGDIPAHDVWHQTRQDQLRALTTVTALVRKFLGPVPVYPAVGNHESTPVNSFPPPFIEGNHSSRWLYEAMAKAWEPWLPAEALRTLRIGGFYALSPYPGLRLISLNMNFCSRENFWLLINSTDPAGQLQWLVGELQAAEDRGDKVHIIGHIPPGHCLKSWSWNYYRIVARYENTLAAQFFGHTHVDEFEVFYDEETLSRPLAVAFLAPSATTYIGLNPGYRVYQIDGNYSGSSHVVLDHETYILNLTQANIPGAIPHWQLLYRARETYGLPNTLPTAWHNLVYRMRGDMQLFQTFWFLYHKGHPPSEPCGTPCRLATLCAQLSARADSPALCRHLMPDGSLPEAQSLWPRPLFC
Sequence of Sphingomyelin phosphodiesterase (P17405 whole entry): as above
Sequence of Ceramide synthase 2 (Mus musculus, UniProt Q924Z4) (Q924Z4 whole entry): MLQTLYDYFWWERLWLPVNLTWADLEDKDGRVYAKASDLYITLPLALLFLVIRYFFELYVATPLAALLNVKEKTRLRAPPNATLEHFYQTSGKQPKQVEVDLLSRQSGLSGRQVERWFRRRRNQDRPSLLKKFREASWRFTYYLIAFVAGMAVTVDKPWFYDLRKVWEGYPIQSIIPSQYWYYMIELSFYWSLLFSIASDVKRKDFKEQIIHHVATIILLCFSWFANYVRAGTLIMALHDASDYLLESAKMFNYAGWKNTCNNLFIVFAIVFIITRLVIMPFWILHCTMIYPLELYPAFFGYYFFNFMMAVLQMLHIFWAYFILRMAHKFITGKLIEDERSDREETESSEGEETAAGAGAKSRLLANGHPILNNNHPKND
Sequence of Ceramide synthase 6 (Q6ZMG9 whole entry): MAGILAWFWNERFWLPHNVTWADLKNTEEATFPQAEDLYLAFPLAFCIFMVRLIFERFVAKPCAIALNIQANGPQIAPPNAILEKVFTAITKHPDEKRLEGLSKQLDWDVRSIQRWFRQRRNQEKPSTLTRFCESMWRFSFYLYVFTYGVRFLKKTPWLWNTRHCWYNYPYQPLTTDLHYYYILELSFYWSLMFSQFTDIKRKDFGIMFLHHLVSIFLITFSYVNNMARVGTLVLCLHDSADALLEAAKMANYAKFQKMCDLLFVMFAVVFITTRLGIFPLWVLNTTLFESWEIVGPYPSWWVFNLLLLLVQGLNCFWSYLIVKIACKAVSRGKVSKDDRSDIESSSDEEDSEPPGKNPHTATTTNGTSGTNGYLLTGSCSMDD
Sequence of Ceramide synthase 5 (Q9D6K9 whole entry): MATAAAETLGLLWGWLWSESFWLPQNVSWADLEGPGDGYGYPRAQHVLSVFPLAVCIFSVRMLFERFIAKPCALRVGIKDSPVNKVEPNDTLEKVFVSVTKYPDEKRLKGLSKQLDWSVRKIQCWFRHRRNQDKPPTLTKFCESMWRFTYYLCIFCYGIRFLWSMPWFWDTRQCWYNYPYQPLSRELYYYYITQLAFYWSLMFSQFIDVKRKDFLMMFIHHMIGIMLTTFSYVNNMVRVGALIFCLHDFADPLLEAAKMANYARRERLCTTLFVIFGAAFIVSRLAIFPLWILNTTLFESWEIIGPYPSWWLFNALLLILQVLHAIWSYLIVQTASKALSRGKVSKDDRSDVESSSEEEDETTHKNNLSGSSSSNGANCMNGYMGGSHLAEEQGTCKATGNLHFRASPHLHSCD

The IC50 is the point on the concentration scale where inhibition reaches its midpoint. `CCCCCCCCCCCCCSC[C@@H](O)[C@H](CO)NC(=O)CCCCCCC` showed an IC50 in experiment [1] of 8.2 µM. What is called inhibition is the relative decrease from the control value, in per cent. Regarding `CCCCCCCCCCCCC/C=C/[C@@H](OCc1cccc(-c2ccccn2)n1)[C@H](CO)NC(=O)CCCCC`, the inhibition in experiment [2] turned out to be 20%. For the compound `C[C@@](N)(CO)CCc1ccc(OCc2ccc(Cl)c(Cl)c2)cc1`, the IC50 in experiment [3], in experiment [4], in experiment [5], in experiment [6] and in experiment [7] was 7 µM in each case. In general, Ki refers to the equilibrium dissociation constant of an inhibitor or competing ligand from its target. Take `Oc1ccc(Nc2nc(-c3ccc(Cl)cc3)cs2)cc1`: the Ki in [8] was 0.3 µM. In turn, `CN1c2ccc(OC(=O)Nc3ccccc3)nc2[C@]2(C)CCO[C@H]12` came in with an inhibition in experiment [9] of 60%. In the case of `O=C(/C=C/c1ccc(/C=C/C(=O)Nc2ccc(C3=NCCN3)cc2)cc1)Nc1ccc(C2=NCCN2)cc1`, in [10], inhibition was half-maximal at 1 µM (IC50). For `N=C(N)N/N=C/c1ccc(Oc2cccc(OCc3ccccc3)c2)cc1`, the inhibition in experiment [11] came out at 80%. For the compound `COc1cc([C@H]2Oc3cc(O)cc(O)c3C[C@H]2OC(=O)c2cc(O)c(O)c(O)c2)cc(O)c1O`, the midpoint of inhibition in experiment [12], the IC50, lay at 1.7 µM. `O=c1[nH]c(=S)[nH]c(-c2ccccc2)c1Cc1c(O)ccc2ccccc12` [CAMBINOL]: the IC50 in experiment [13] was 5 µM.

As to `Nc1c(Br)cc(Br)cc1CN[C@H]1CC[C@H](O)CC1` [AMBROXOL], the results for the IC50 in [14], in [15] and in experiment [16] were 31 µM, more than 1100 µM and 8.1 µM, respectively.

`CN1c2ccc(OC(=O)Nc3ccncc3)cc2[C@]2(C)CCO[C@H]12` returned an IC50 in experiment [17] of 7 µM. For `CCCCCCCCCCCCCC1=C([C@@H](O)[C@H](CO)NC(=O)CCCCCCC)C1`, the figures for the Ki in experiment [18] and in experiment [19] were 6 µM and 0.022 µM, respectively. Further, the IC50 in experiment [20] turned out to be 0.052 µM.

Consider `CC1=C(/C=C/C(C)=C/C=C/C(C)=C/C(=O)Nc2ccc(O)cc2)C(C)(C)CCC1` [FENRETINIDE], for which the Ki in [21] worked out at 8.28 µM. Besides, the IC50 in experiment [22] came out at 2.32 µM; in experiment [23], 0.1 µM.

Take `CCCCCCCCCCCCCCCC(=O)N[C@H](CC(F)(F)P(=O)(O)O)[C@@H](O)c1ccccc1`: in experiment [24], the Ki is 1.6 µM. For the same compound, the IC50 in experiment [25] was determined as 3.3 µM.

Turning to `CCCCCCCCCCCCOS(=O)(=O)O[C@@H]1[C@H](O)[C@H](OP(=O)(O)O)[C@@H](O)[C@H](OP(=O)(O)O)[C@H]1O`, the Ki in [26] is 0.42 µM. In [27], this compound displayed an IC50 of 0.9 µM. The compound `COc1c(O)c(C)c(C/C=C(\C)CC/C=C(\C)CC/C=C(\C)CC/C=C(\C)CC/C=C(\C)CC/C=C(\C)CC/C=C(\C)CC/C=C(\C)CC/C=C(\C)CCC=C(C)C)c(O)c1OC` had an inhibition in [28] of more than 90%. On to `COc1cc(O)c(C(=O)O)c(-c2cc(O)c(O)cc2C)c1` [ALTENUSIN], for which the Ki in experiment [29] came out at 20 µM. As for `CCCCCCCC(=O)OC[C@H](COP(=O)(O)O[C@@H]1[C@H](O)[C@H](OP(=O)(O)O)[C@@H](O)[C@H](OP(=O)(O)O)[C@H]1O)OC(=O)CCCCCCC`, in experiment [30], the Ki came to 0.53 µM. In experiment [27], this compound registered an IC50 of 0.93 µM. The inhibition in experiment [31] was more than 90%. Regarding `CCCC[C@@H](C)[C@@H](OC(=O)C[C@@H](CC(=O)O)C(=O)O)[C@H](C[C@@H](C)C[C@H](O)CCCC[C@@H](O)C[C@H](O)[C@H](C)N)OC(=O)C[C@@H](CC(=O)O)C(=O)O`, in [32], the IC50 worked out at 0.1 µM. Compound `CCCCCCCCc1ccc(CCC(N)(CO)CO)cc1` [FINGOLIMOD] registered an IC50 in experiment [33] of 6.4 µM. Also, in experiment [34], the Ki worked out at 2.15 µM.
